What was measured:
Type in all cases: in vivo
[1] = test system: ducksalad (Heteranthera limosa); assay: Test B flooded paddy test; conditions: Flood, 250 g ai/ha; 0 to 100 scale where 0 is no effect and 100 is complete control; 13 to 15 d
Outline: (§1)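 Flooding to 3 cm over soil accompanied treatment, which consisted of adding compound to the standing water around 2-leaf plants; depth was then maintained. Visual assessment versus controls followed at 13 to 15 d (scale 0–100, 0 meaning no effect).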

[2] = test system: sedge, umbrella (small-flower umbrella sedge, Cyperus difformis); assay: Test B flooded paddy test; conditions: Flood, 250 g ai/ha; 0 to 100 scale where 0 is no effect and 100 is complete control; 13 to 15 d
Outline: as §1

[3] = test system: rice (Oryra sativa); assay: Test B flooded paddy test; conditions: Flood, 250 g ai/ha; 0 to 100 scale where 0 is no effect and 100 is complete control; 13 to 15 d
Outline: as §1

[4] = test system: barnyardgrass (Echinochloa crus-galli); assay: Test B flooded paddy test; conditions: Flood, 250 g ai/ha; 0 to 100 scale where 0 is no effect and 100 is complete control; 13 to 15 d
Outline: as §1

[5] = test system: ryegrass, Italian (Italian ryegrass, Lolium multiflorum); assay: Test A postemergence; conditions: postemergence, 0 to 100 scale (0 no effect, 100 complete control)
Outline: (§2)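 Seeded soil received test chemicals as a preemergence directed spray, and seedlings at one to two leaves, 2–10 cm tall, received them postemergence, in a non-phytotoxic, surfactant-containing solvent mixture. Pots were held in a greenhouse for approximately 10 d, then rated for injury from 0, no effect, to 100, complete control.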

[6] = test system: pigweed (Amaranthus retroflexus); assay: Test A postemergence; conditions: postemergence, 0 to 100 scale (0 no effect, 100 complete control)
Outline: as §2

[7] = test system: ragweed (common ragweed, Ambrosia elatior); assay: Test A postemergence; conditions: postemergence, 0 to 100 scale (0 no effect, 100 complete control)
Outline: as §2

[8] = test system: Kochia (Kochia scoparia); assay: Test A postemergence; conditions: postemergence, 0 to 100 scale (0 no effect, 100 complete control)
Outline: as §2

[9] = test system: Galium (catchweed bedstraw, Galium aparine); assay: Test A postemergence; conditions: postemergence, 0 to 100 scale (0 no effect, 100 complete control)
Outline: as §2

[10] = test system: wheat (Triticum aestivum); assay: Test A postemergence; conditions: postemergence, 0 to 100 scale (0 no effect, 100 complete control)
Outline: as §2

[11] = test system: corn (Zea mays); assay: Test A postemergence; conditions: postemergence, 0 to 100 scale (0 no effect, 100 complete control)
Outline: as §2

[12] = test system: barnyardgrass (Echinochloa crus-galli); assay: Test A postemergence; conditions: postemergence, 0 to 100 scale (0 no effect, 100 complete control)
Outline: as §2

[13] = test system: blackgrass (Alopecurus myosuroides); assay: Test A postemergence; conditions: postemergence, 0 to 100 scale (0 no effect, 100 complete control)
Outline: as §2

[14] = test system: giant foxtail (Setaria faberii); assay: Test A postemergence; conditions: postemergence, 0 to 100 scale (0 no effect, 100 complete control)
Outline: as §2

[15] = test system: ryegrass, Italian (Italian ryegrass, Lolium multiflorum); assay: Test A preemergence
Outline: as §2

[16] = test system: pigweed (Amaranthus retroflexus); assay: Test A preemergence
[17] = test system: ragweed (common ragweed, Ambrosia elatior); assay: Test A preemergence
Outline: as §2

[18] = test system: Kochia (Kochia scoparia); assay: Test A preemergence
Outline: as §2

[19] = test system: barnyardgrass (Echinochloa crus-galli); assay: Test A preemergence
Outline: as §2

[20] = test system: giant foxtail (Setaria faberii); assay: Test A preemergence
Outline: as §2

[21] = 125 g ai/ha, visual rating after approx. 10 d
[22] = 500 g ai/ha, visual injury, approx. 10 d
[23] = 125 g ai/ha, Preemergence, visual injury after approximately 10 d, 0 to 100 scale where 0 is no effect and 100 is complete control
[24] = 500 g ai/ha, preemergence, 0 to 100 scale, 0 = no effect, 100 = complete control

Row | Compound | Plant response rating, Ducksalad [1] | Plant response rating, Sedge, Umbrella [2] | Plant response rating, Rice [3] | Plant response rating, Barnyardgrass [4] | Plant response rating, Ryegrass, Italian [5, 21] | Plant response rating, Ryegrass, Italian [5, 22] | Plant response rating, Pigweed [6, 21] | Plant response rating, Pigweed [6, 22] | Plant response rating, Ragweed [7, 21] | Plant response rating, Ragweed [7, 22] | Plant response rating, Kochia [8, 21] | Plant response rating, Kochia [8, 22] | Plant response rating, Galium [9, 21] | Plant response rating, Galium [9, 22] | Plant response rating, Wheat [10, 21] | Plant response rating, Wheat [10, 22] | Plant response rating, Corn [11, 21] | Plant response rating, Corn [11, 22] | Plant response rating, Barnyardgrass [12, 21] | Plant response rating, Barnyardgrass [12, 22] | further results
1 | CC(C)Oc1cccc(C2CN(C)C(=O)C2C(=O)Nc2ccccc2S(C)(=O)=O)c1 (stereo not drawn) [Compound 653] | 40 | 0 | 0 | 30 | 40 | 60 | 0 | 0 | 0 | 0 | 0 | 0 | 40 | 50 | 30 | 60 | 0 | 30 | 60 | 90 | Plant response rating, Blackgrass [13, 21]: 50; Plant response rating, Blackgrass [13, 22]: 70; Plant response rating, Foxtail, Giant [14, 21]: 60; Plant response rating, Foxtail, Giant [14, 22]: 90; Plant response rating, Ryegrass, Italian [15, 23]: 70; Plant response rating, Ryegrass, Italian [15, 24]: 70; Plant response rating, Pigweed [16, 23]: 70; Plant response rating, Pigweed [16, 24]: 90; Plant response rating, Ragweed [17, 23]: 50; Plant response rating, Ragweed [17, 24]: 80; Plant response rating, Kochia [18, 23]: 0; Plant response rating, Kochia [18, 24]: 70; Plant response rating, Barnyardgrass [19, 23]: 90; Plant response rating, Barnyardgrass [19, 24]: 90; Plant response rating, Foxtail, Giant [20, 23]: 90; Plant response rating, Foxtail, Giant [20, 24]: 100
2 | Cc1ccc(C2CN(C)C(=O)C2C(=O)Nc2ccccc2S(C)(=O)=O)cc1 (stereo not drawn) [Compound 663] | 98 | 0 | 0 | 70 | 40 | 70 | 0 | 20 | 30 | 40 | 20 | 60 | 50 | 60 | 50 | 70 | 30 | 80 | 90 | 90 | Plant response rating, Blackgrass [13, 21]: 60; Plant response rating, Blackgrass [13, 22]: 70; Plant response rating, Foxtail, Giant [14, 21]: 90; Plant response rating, Foxtail, Giant [14, 22]: 90; Plant response rating, Ryegrass, Italian [15, 23]: 30; Plant response rating, Ryegrass, Italian [15, 24]: 90; Plant response rating, Pigweed [16, 23]: 30; Plant response rating, Pigweed [16, 24]: 70; Plant response rating, Ragweed [17, 23]: 30; Plant response rating, Ragweed [17, 24]: 70; Plant response rating, Kochia [18, 23]: 70; Plant response rating, Kochia [18, 24]: 80; Plant response rating, Barnyardgrass [19, 23]: 90; Plant response rating, Barnyardgrass [19, 24]: 100; Plant response rating, Foxtail, Giant [20, 23]: 90; Plant response rating, Foxtail, Giant [20, 24]: 100
3 | Cc1ccc(C2CN(C)C(=O)C2C(=O)Nc2ccccc2C(F)(F)F)cc1 (stereo not drawn) [Compound 665] | 90 | 0 | 25 | 70 | 30 | 80 | 0 | 20 | 0 | 30 | 0 | 50 | 50 | 50 | 30 | 70 | 40 | 70 | 90 | 90 | Plant response rating, Blackgrass [13, 21]: 40; Plant response rating, Blackgrass [13, 22]: 70; Plant response rating, Foxtail, Giant [14, 21]: 90; Plant response rating, Foxtail, Giant [14, 22]: 90; Plant response rating, Ryegrass, Italian [15, 23]: 20; Plant response rating, Ryegrass, Italian [15, 24]: 50; Plant response rating, Pigweed [16, 23]: 30; Plant response rating, Pigweed [16, 24]: 30; Plant response rating, Ragweed [17, 23]: 20; Plant response rating, Ragweed [17, 24]: 90; Plant response rating, Kochia [18, 23]: 60; Plant response rating, Kochia [18, 24]: 70; Plant response rating, Barnyardgrass [19, 23]: 90; Plant response rating, Barnyardgrass [19, 24]: 90; Plant response rating, Foxtail, Giant [20, 23]: 100; Plant response rating, Foxtail, Giant [20, 24]: 100

— patent publication US12077503B2, “Substituted cyclic amides and their use as herbicides” (FMC CORPORATION, priority 2015, dated 2024)
